Reference: patent US20230234936A1, “COMPOUND FOR TARGETING AND DEGRADING PROTEIN, AND PREPARATION METHOD THEREFOR AND USE THEREOF” (SHANGHAI LEADINGTAC PHARMACEUTICAL CO., LTD., priority 2020, published 2023)

What was measured:
IRAK4 kinase = molecular target: T1, IRAK4 kinase (Homo sapiens, UniProt Q9NWZ3); test: IRAK4 kinase activity test (KinEASE-STK S1 HTRF kit); assay type: biochemical; conditions: 2.5 nM kinase, 1 μM biotinylated polypeptide substrate, 7 μM ATP, 37° C. 120 min
T1 sequence (Q9NWZ3 1-460): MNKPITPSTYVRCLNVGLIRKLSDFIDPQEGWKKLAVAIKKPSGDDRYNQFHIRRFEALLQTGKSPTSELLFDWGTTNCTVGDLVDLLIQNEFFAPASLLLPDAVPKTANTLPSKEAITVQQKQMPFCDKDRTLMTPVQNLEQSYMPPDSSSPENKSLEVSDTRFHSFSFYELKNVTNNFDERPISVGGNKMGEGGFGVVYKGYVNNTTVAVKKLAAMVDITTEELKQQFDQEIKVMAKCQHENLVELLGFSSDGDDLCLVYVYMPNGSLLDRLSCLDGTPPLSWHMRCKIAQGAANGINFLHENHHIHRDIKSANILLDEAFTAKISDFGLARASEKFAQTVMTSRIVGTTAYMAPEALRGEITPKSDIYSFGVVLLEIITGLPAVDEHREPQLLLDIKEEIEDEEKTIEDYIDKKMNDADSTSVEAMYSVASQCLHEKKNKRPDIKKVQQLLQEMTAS
Description: KinEASE-STK S1 serine/threonine kinase kit (Cisbio) was used to detect the inhibitory effect of the compound on IRAK4 kinase activity. The specific method was: the compound was dissolved in dimethyl sulfoxide, and then it was diluted with the buffer solution of the kit by equal gradient to make the final concentration range of the tested compound in the reaction system 10000 nM-0.038 nM, then 2.5 nM kinase, 1 μM biotinylated polypeptide substrate and 7 μM adenosine triphosphate (ATP) were added in sequence and incubated at 37° C. for 120 min. Subsequently, anti-phosphorylated serine/threonine antibody coupled with europium element compound and modified XL665 streptavidin were added to the reaction system to terminate the reaction. After incubating at room temperature for 1 h, the fluorescence intensity of each well at the emission wavelength of 620 nm and 665 nm and the excitation wavelength of 337 nm was determined in HTRF mode on the microplate reader EnVision(PerkinElmer), the ratio value was calculated using the formula Ratio=(665 nm/620 nm)×10^4. By comparing with the fluorescence intensity ratio of the control group, the inhibition rate of the compound at each concentration was calculated, and then the IC50 value of the compound was obtained by fitting the nonlinear curve with the logarithmic concentration-inhibition rate by GraphPad Prism 7.

[1] = molecular target: T2, IRAK4 protein in THP-1 cells (Homo sapiens, UniProt Q9NWZ3); test: Degradation of IRAK4 in THP-1 cells (Western blot); assay type: cell-based; conditions: 24 hours, compound 1-3000 nM
T2 construct: endogenous in cells; host or cells: THP-1
T2 sequence (Q9NWZ3 1-460): T1 sequence (Q9NWZ3 1-460)
Description: Each well of the 24-well cell culture plate was inoculated with 0.95 mL THP-1 cells (stem cell bank of Chinese academy of sciences) with a cell density of 5×10^5 cells/well. The cell plate was placed in a 5% carbon dioxide incubator and cultured overnight at 37° C., then 50 μL compound in dimethyl sulfoxide was added. The final concentration of the compound was in the range of 1-3000 nM. After continuous cultivation for 24 hours, the cells were collected into a 1.5 mL centrifuge tube, centrifuged at 1000 rpm and 4° C. for 5 minutes. Cell precipitation was cleaned twice with 1-DPBS, resuspended cells were lysed with 200 μL lysate (cell lysate was Western and IP cell lysate (Beyotime), supplemented with 1 mM mixture of phenylmethylsulfonyl fluoride and protease inhibitor (Beyotime)), left on ice for 30 minutes, then centrifuged at 14000 g at 4° C. for 10 minutes, and the supernatant was taken to detect IRAK4 protein level by Western blot.
Western blot method: The total protein concentration in the supernatant of cell lysis was determined by BCA protein quantitative kit (Tiangen). According to the concentration of total protein detected by BCA, the supernatant was adjusted to 0.2 μg/μL with PBS and 5× SDS-PAGE protein loading buffer (Beyotime), bathed in water at 100° C. for 10 minutes, then placed in ice bath for 5 minutes, centrifuged at 14000 g and 4° C. for 5 minutes, and then collected as WB loading sample. Prefabricated glue (KeyGEN) was used for protein electrophoresis with a loading amount of 10 μL (total protein 2 μg). After Tris-MOPS-SDS electrophoresis solution (Adamas), 120V constant pressure electrophoresis was performed. After electrophoresis, the protein on the adhesive strip was transferred to PVDF membrane with a constant current of […] for 50 minutes. After the membrane was transferred, the membrane was placed in 1×QuickBlock blocking buffer (Beyotime) and incubated for 30 minutes at room temperature. After blocking, PVDF membranes were incubated with IRAK4 primary antibody (Abcam) overnight at 4°, the membranes were washed with TBST buffer (2.4 g Tris, 8.8 g NaCl, 1.5 mL Tween 20, pH adjusted to 7.4, constant volume to 1 L) for 30 minutes, incubated with secondary antibody (Abcam) for 2 hours at room temperature, finally incubated with Clarity Western ECL Substrate(BIO-RAD) for 5 minutes for luminescence development, chemiluminescence imaging system (Clinx, chemiScope 6200 Touch) for development and protein mapping photography. The protein map was analyzed by Clinx chemiluminescence analysis software for grayscale values. Using the formula: grayscale correction value=(target protein grayscale value/corresponding internal reference grayscale value)×10^3, the grayscale correction value of each sample was calculated. The degradation rate was calculated by comparing with the grayscale correction value of the control group. Furthermore, DC50 and Dmax values of the compound were obtained by the nonlinear curve fitting with the logarithmic concentration-inhibition rate by GraphPad Prism 7.

| SMILES | IC50 (IRAK4 kinase) [nM] | DC50 [1] [nM] | Dmax [1] [%] |
| --- | --- | --- | --- |
| COc1cc2nn(C3CCN(CCCN4CCC5(CC4)CCN(C(=O)c4ccc(OC)c(N6CCC(=O)NC6=O)c4)CC5)CC3)cc2cc1NC(=O)c1cccc(C(F)(F)F)n1 [Example 2, N-(2-(1-(3-(9-(3-(2,4-dioxotetrahydropyrimi-din-1 (2H)-yl)-4-methoxyben-zoyl)-3,9-diazaspiro [5.5]undec-3-yl)propyl)piperidin-4-yl)-6-methoxy-2H-indazol-5-yl)-6-(tri-fluoromethyl)-2-pyridine carboxamide] | 2.9 | 7.4 | 99.1 |
| COc1cc2nn(C3CCN(CCCCN4CCC5(CC4)CCN(C(=O)c4ccc(OC)c(N6CCC(=O)NC6=O)c4)CC5)CC3)cc2cc1NC(=O)c1cccc(C(F)(F)F)n1 [Example 3] | 2.7 | 23.1 | 90.5 |
| COc1cc2nn(C3CCN(CCC4CCN(C(=O)c5ccc(OC)c(N6CCC(=O)NC6=O)c5)CC4)CC3)cc2cc1NC(=O)c1cccc(C(F)(F)F)n1 [Example 6, N-(2-(1-(2-(1-(3-(2,4-dioxotetrahydropyrim-idin-1 (2H)-yl)-4-methoxyben-zoyl)piperidin-4-yl)ethyl)piperidin-4-yl)-6-me-thoxy-2H-indazol-5-yl)-6-(trifluoromethyl) pyridinecarboxamide] | 7.6 | 24 | 91.7 |
| COc1ccc(C(=O)N2CCC(CCN3CCC(n4cc5cc(NC(=O)c6cccc(C(F)(F)F)n6)c(C(C)(C)O)cc5n4)CC3)CC2)cc1N1CCC(=O)NC1=O [Example 7, N-(2-(1-(2-(1-(3-(2,4-dioxotetrahydropyrimidin-1 (2H)-yl)-4-methoxybenzoyl)piperidin-4-yl)ethyl)piperidin-4-yl)-6-(2-hydroxyprop-2-yl)-2H-indazol-5-yl)-6-(trifluoromethyl) pyridinecarboxamide] | 5.9 | 9.4 | 95.5 |
| COc1cc2nn(C3CCN(CCCCCN(C)C(=O)c4ccc(OC)c(N5CCC(=O)NC5=O)c4)CC3)cc2cc1NC(=O)c1cccc(C(F)(F)F)n1 [Example 9, N-(2-(1-(5-(3-(2,4-dioxotetrahydropyrimidin-1 (2H)-yl)-4-methoxy-N-methylbenzamido)pentyl)piperidin-4-yl)-6-methoxy-2H-indazol-5-yl)-6-(trifluoromethyl) pyridinecarboxamide] | 18 | 16.4 | 94.3 |
| COc1ccc(C(=O)N2CCC3(CCN(CCN4CCC(n5cc6cc(NC(=O)c7cccc(C(F)(F)F)n7)c(C(C)(C)O)cc6n5)CC4)CC3)CC2)cc1N1CCC(=O)NC1=O [Example 10, N-(2-(1-(2-(9-(3-(2,4-dioxotetrahydropyrimidin-1 (2H)-yl)-4-methoxybenzoyl)-3,9-diazaspiro[5.5]undec-3-yl)ethyl)piperidin-4-yl)-6-(2-hydroxyprop-2-yl)-2H-indazol-5-yl)-6-(trifluoromethyl) pyridinecarboxamide] | 6.5 | 2.3 | 100 |
| COc1ccc(C(=O)N2CCC3(CCN(CCCN4CCC(n5cc6cc(NC(=O)c7cccc(C(F)(F)F)n7)c(C(C)(C)O)cc6n5)CC4)CC3)CC2)cc1N1CCC(=O)NC1=O [Example 11] | 6 | 27.7 | 99.6 |
| COc1ccc(C(=O)N2CCC3(CC2)CN(CCN2CCC(n4cc5cc(NC(=O)c6cccc(C(F)(F)F)n6)c(C(C)(C)O)cc5n4)CC2)C3)cc1N1CCC(=O)NC1=O [Example 12, N-(2-(1-(2-(7-(3-(2,4-dioxotetrahydropyrimidin-1 (2H)-yl)-4-methoxybenzoyl)-2,7-diazaspiro [3.5]non-2-yl)ethyl)piperidin-4-yl)-6-(2-hydroxyprop-2-yl)-2H-indazol-5-yl)-6-(trifluoro-methyl) pyridinecarboxamide] | 7.9 | 1.4 | 96.9 |

Further lines, results first:

| IC50 (IRAK4 kinase) [nM] | DC50 [1] [nM] | Dmax [1] [%] | SMILES |
| --- | --- | --- | --- |
| 9.2 | 7.1 | 99.4 | COc1cc2nn(C3CCN(CCN4CCC5(CC4)CCN(C(=O)c4ccc(Cl)c(N6CCC(=O)NC6=O)c4)CC5)CC3)cc2cc1NC(=O)c1cccc(C(F)(F)F)n1 [Example 16, N-(2-(1-(2-(9-(4-chloro-3-(2,4-dioxotetrahydro-pyrimidin-1 (2H)-yl)benzoyl)-3,9-diazaspiro[5.5]undec-3-yl)ethyl)piperidin-4-yl)-6-methoxy-2H-in-dazol-5-yl)-6-(tri-fluoromethyl) pyridinecarbox-amide] |
| 7.9 | 5.3 | 96.9 | CC(C)(O)c1cc2nn(C3CCN(CCN4CCC5(CC4)CCN(C(=O)c4ccc(Cl)c(N6CCC(=O)NC6=O)c4)CC5)CC3)cc2cc1NC(=O)c1cccc(C(F)(F)F)n1 [Example 17, N-(2-(1-(2-(9-(4-chloro-3-(2,4-dioxotetrahydro-pyrimidin-1 (2H)-yl)benzoyl)-3,9-diazaspiro[5.5]undec-3-yl)ethyl)piperidin-4-yl)-6-(2-hydroxyprop-2-yl)-2H-indazol-5-yl)-6-(trifluoro-methyl) pyridinecarbox-amide] |
| 9.6 | 7.1 | 99.4 | COc1cc2nn(C3CCN(CCCC4CCN(C(=O)c5ccc(OC)c(N6CCC(=O)NC6=O)c5)CC4)CC3)cc2cc1NC(=O)c1cccc(C(F)(F)F)n1 [Example 18, N-(2-(1-(3-(1-(3-(2,4-dioxotetrahydro-pyrimidin-1 (2H)-yl)-4-me-thoxybenzoyl)piperidin-4-yl)propyl)piperidin-4-yl)-6-methoxy-2H-in-dazol-5-yl)-6-(trifluorometh-yl) pyridinecarbox-amide] |
| 16.9 | 13.4 | 92.8 | COc1cc2nn(C3CCN(CCCN4CCN(C(=O)c5ccc(OC)c(N6CCC(=O)NC6=O)c5)CC4)CC3)cc2cc1NC(=O)c1cccc(C(F)(F)F)n1 [Example 19, N-(2-(1-(3-(4-(3-(2,4-dioxotetrahydro-pyrimidin-1 (2H)-yl)-4-me-thoxybenzoyl)piperazin-1-yl)propyl)piperidin-4-yl)-6-methoxy-2H-in-dazol-5-yl)-6-(trifluorometh-yl) pyridinecarbox-amide] |
| 9.5 | 12.2 | 93.7 | COc1cc2nn(C3CCN(CCOC4CCN(C(=O)c5ccc(OC)c(N6CCC(=O)NC6=O)c5)CC4)CC3)cc2cc1NC(=O)c1cccc(C(F)(F)F)n1 [Example 20] |
